Results taken from patent US11440870B2, “Cannabidiolic acid esters compositions and uses thereof” (Yissum Research Development Company of the Hebrew …, priority 2017, dated 2022).

How the values were obtained:
[1] = test system: locomotor activity of rats; assay: Locomotor activity test after the anticipatory nausea test; format: in vivo, male Sprague-Dawley rats; settings: 0.01 or 0.1 μg·kg−1 i.p.; 15 min test; ANOVA F(6, 39)=0.9, P>0.05
Procedure: For in vivo experiment 2, contextually elicited conditioned gaping (a model of anticipatory nausea) was measured using a distinctive conditioning chamber made of opaque black Plexiglass (22.5×26×20 cm) with an opaque lid that sat on a table with a clear glass top. A mirror beneath the chamber at a 45° angle facilitated viewing of the ventral surface of the rat to observe orofacial responses. The conditioning chamber was in a dark room next to a 25 W light source. A video camera that was fire-wired into a computer was focused on the mirror to record each rat's orofacial reactions during the 5 min test trial. The video tapes were later scored using ‘The Observer’ software. […]
To compare the potential of HU-580 and CBDA to reduce anticipatory nausea, the contextually elicited conditioned gaping paradigm was used (e.g. Limebeer et al., 2010; Rock et al., 2014). […] Pretreatments were injected 45 min before the rats were given an saline injection (20 mL·kg^−1 i.p.) and individually placed in the conditioning (contextual) chamber for 5 min, and orofacial responses were video recorded. […] The video tapes from the test trial were scored by an observer blind to the experimental conditions using ‘The Observer’ for the behaviors of gaping (large openings of the mouth and jaw, with lower incisors exposed). […]

[2] = test system: LiCl-induced conditioned gaping (acute nausea) in rats; settings: i.p.; literature (Bolognini et al., 2013; Rock et al.); cited from earlier work
[3] = test system: anxiety-like responding in rats; settings: i.p.; literature (Rock et al., 2017); cited from earlier work
[4] = Stability on storage at 4° C.; settings: stored at 4° C. (21 days for the comparison)

Which “Distance moved in locomotor activity test” value [1] does the source give for `C=C(C)[C@@H]1CCC(C)=C[C@H]1c1c(O)cc(CCCCC)c(C(=O)O)c1O` [CBDA, Cannabidiolic acid] here?
Its value is “no significant effect on distance moved”.

And the “Dose as low as which anti-nausea effects are induced (vomiting in Suncus murinus, conditioned gaping in rats)” value [2]?
The value was 1 µg/kg.

And the “Doses as low as which anxiolytic-like effects are produced under conditions of high stress” value [3]?
Its value is 0.1 µg/kg.

Which “Distance moved in locomotor activity test” value [1] does the source give for `C=C(C)[C@@H]1CCC(C)=C[C@H]1c1c(O)cc(CCCCC)c(C(=O)OC)c1O` [HU-580, Cannabidiolic Acid Methyl Ester] here?
The value was “no significant effect on distance moved”.

And the Stability when stored [4]?
Its Stability when stored is “more stable than CBDA”.
